Active and inactive are the calls of the source. The calls are words filed in the database; no cut-off is given here.
Columns and labels:
[1] = target: Metabotropic glutamate receptor 1 (Homo sapiens) (UniProt Q13255); test: Activity at human mGluR1 assessed as inhibition of glutamate-induced calcium influx by FLIPR assay; assay type: functional
[2] = target: Metabotropic glutamate receptor 5 (Homo sapiens, UniProt P41594); test: Activity at human mGluR5d assessed as inhibition of glutamate-induced calcium influx by FLIPR assay; assay type: functional
Chain of Metabotropic glutamate receptor 5 (P41594 whole entry): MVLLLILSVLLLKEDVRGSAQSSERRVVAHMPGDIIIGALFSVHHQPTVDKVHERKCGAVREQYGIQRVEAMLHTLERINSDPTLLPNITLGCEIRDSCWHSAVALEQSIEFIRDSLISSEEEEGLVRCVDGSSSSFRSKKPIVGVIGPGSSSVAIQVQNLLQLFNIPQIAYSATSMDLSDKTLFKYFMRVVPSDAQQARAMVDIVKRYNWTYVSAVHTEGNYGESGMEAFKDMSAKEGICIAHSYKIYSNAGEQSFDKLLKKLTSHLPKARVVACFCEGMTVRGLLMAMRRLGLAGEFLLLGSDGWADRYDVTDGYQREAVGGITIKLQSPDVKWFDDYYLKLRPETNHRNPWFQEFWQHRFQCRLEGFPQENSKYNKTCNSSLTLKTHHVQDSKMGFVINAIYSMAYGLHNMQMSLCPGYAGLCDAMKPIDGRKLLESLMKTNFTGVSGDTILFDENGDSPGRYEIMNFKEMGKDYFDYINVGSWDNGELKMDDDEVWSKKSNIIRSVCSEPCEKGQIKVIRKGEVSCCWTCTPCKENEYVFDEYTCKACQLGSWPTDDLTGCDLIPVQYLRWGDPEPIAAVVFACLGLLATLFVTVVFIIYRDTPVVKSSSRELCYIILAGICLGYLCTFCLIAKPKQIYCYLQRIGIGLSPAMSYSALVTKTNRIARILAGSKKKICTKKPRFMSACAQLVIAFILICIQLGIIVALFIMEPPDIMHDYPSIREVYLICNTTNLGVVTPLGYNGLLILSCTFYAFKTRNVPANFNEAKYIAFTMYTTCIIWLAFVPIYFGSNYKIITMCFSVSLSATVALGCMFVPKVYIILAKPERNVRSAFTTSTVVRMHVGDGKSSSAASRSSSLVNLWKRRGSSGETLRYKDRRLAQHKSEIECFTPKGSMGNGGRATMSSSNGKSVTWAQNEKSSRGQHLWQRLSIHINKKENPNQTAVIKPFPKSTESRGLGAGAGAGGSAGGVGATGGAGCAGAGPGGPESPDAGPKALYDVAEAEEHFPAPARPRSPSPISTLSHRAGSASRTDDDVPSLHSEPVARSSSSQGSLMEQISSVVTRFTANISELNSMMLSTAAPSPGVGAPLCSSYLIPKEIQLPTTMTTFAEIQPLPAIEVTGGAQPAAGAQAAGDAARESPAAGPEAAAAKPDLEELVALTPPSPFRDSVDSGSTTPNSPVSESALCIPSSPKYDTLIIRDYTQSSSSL

[3] = target: Metabotropic glutamate receptor 4 (Homo sapiens) (UniProt Q14833); test: Activity at human mGluR4 assessed as inhibition of glutamate-induced calcium influx by FLIPR assay; assay type: functional
Chain of Metabotropic glutamate receptor 4 (Homo sapiens) (Q14833 whole entry): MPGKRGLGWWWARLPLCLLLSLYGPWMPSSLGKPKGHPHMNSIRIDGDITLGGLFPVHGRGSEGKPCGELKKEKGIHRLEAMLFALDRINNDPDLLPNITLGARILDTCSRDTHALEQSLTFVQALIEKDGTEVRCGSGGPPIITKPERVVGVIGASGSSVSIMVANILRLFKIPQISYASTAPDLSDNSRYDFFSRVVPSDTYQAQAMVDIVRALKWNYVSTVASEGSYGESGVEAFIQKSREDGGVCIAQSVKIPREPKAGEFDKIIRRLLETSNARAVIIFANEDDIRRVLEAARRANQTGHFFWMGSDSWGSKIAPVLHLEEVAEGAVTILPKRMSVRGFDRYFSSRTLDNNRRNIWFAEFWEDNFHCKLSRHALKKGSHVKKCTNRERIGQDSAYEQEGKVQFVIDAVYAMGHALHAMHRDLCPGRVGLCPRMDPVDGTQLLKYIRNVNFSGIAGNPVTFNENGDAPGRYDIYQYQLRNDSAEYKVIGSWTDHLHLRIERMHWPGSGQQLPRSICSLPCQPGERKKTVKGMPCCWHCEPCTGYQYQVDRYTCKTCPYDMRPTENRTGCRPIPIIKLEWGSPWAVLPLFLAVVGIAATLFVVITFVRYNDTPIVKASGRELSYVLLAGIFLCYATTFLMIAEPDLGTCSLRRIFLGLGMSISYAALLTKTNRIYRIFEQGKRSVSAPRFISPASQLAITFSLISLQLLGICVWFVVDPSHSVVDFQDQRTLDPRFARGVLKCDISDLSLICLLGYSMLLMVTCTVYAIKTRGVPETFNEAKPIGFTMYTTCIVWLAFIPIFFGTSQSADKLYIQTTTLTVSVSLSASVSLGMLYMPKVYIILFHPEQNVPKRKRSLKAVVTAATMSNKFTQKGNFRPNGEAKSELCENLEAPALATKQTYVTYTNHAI

[4] = target: Metabotropic glutamate receptor 8 (Homo sapiens) (UniProt O00222); test: Activity at human mGluR8 assessed as inhibition of glutamate-induced calcium influx by FLIPR assay; assay type: functional
Chain of Metabotropic glutamate receptor 8 (Homo sapiens) (O00222 whole entry): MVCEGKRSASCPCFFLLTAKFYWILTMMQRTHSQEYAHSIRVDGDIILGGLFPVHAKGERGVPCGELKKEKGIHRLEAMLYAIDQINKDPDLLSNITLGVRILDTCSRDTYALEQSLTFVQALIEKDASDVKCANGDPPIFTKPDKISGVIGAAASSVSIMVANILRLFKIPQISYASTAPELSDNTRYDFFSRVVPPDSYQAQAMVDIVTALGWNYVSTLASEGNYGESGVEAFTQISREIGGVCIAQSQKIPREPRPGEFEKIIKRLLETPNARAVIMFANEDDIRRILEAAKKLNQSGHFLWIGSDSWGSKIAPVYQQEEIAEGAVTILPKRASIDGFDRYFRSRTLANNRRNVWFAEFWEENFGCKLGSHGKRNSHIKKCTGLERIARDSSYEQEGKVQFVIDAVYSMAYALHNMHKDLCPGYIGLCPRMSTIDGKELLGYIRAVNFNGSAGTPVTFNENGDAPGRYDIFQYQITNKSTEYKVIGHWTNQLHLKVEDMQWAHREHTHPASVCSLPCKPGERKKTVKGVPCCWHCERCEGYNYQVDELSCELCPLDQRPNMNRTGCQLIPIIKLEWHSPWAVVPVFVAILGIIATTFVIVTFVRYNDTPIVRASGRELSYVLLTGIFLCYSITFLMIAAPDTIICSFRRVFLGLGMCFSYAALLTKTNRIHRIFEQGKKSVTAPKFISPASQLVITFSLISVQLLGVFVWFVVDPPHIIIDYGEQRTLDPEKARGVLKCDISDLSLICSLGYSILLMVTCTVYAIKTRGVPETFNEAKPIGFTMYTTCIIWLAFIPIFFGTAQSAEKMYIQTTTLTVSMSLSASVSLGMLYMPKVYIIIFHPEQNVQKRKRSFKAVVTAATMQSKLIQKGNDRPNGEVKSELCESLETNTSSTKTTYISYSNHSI

[5] = target: Metabotropic glutamate receptor 3 (Homo sapiens) (UniProt Q14832); test: Activity at human mGluR3 assessed as inhibition of glutamate-induced calcium influx by FLIPR assay; assay type: functional
Chain of Metabotropic glutamate receptor 3 (Homo sapiens) (Q14832 23-879 limits assumed): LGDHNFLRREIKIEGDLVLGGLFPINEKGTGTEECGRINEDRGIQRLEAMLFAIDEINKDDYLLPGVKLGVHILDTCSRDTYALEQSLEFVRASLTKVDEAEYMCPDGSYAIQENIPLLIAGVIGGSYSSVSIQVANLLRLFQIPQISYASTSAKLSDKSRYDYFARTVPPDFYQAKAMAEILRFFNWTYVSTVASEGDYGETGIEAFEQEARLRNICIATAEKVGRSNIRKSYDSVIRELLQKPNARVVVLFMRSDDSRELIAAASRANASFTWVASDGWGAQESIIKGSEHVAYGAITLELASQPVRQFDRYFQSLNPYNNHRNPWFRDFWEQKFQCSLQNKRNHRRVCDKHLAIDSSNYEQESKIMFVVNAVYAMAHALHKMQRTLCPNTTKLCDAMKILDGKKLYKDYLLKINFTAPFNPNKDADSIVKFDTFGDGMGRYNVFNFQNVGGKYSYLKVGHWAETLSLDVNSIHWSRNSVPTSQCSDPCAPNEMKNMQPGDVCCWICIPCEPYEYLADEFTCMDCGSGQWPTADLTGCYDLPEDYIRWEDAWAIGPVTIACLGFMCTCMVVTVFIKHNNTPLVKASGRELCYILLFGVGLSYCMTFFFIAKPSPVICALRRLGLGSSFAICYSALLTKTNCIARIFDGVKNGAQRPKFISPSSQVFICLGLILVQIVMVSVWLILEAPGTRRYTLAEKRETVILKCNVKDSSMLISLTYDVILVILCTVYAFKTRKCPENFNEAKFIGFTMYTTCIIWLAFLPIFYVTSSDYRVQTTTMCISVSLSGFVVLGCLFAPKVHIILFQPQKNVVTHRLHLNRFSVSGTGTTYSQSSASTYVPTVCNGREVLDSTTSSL

[6] = Clearance in dog; assay type: ADME, organism-based, Canis lupus familiaris; conditions: in vivo
[7] = Intrinsic clearance in rat liver microsomes; assay type: ADME, Microsome
[8] = Half life in dog; assay type: ADME, organism-based, Canis lupus familiaris; conditions: in vivo
[9] = Volume of distribution in dog; assay type: ADME, organism-based, Canis lupus familiaris; conditions: in vivo, read-out: Vss
Canis familiaris = test: Inhibition of transient lower esophageal sphincter relaxation in dog at 3.9 umol/kg, iv; assay type: functional, Canis lupus familiaris; set-up: scale not given: the % may be the effect or the level left

Chain of Metabotropic glutamate receptor 1 (Homo sapiens) (Q13255 19-1194 limits assumed): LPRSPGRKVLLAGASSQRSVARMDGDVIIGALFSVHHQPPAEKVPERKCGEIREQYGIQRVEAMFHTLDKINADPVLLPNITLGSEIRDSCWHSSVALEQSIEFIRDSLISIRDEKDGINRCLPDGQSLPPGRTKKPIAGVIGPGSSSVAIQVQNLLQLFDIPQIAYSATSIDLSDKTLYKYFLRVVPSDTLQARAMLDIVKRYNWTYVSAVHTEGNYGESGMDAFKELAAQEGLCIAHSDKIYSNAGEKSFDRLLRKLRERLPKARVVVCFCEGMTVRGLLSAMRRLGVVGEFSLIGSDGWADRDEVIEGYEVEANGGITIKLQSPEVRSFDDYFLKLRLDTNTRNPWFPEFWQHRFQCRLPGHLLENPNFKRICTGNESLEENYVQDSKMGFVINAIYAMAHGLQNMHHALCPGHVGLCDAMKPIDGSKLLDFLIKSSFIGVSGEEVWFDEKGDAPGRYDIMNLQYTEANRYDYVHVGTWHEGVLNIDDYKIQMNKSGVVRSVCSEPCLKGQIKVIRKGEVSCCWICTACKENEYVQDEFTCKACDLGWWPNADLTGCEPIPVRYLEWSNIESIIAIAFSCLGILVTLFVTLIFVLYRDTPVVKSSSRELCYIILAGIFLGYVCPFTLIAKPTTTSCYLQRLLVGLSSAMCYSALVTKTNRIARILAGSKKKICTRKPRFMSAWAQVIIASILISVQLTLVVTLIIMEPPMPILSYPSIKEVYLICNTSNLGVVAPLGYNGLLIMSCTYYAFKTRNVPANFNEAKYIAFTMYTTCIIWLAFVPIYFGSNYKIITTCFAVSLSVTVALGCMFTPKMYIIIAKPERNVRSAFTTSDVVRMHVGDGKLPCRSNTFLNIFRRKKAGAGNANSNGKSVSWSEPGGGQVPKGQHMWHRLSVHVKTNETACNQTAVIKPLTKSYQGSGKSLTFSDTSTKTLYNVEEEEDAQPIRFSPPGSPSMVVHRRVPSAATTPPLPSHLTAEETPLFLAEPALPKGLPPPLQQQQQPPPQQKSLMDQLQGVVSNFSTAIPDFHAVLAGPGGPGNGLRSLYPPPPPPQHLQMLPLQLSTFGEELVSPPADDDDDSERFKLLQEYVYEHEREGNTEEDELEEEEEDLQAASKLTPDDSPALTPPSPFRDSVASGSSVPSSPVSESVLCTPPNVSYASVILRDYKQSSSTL

| Compound | Activity [1] | IC50 [2] [nM] | other results |
| --- | --- | --- | --- |
| Cc1cccc(C#CCCc2ccccc2)n1 | – | 78 | Activity [3]: inactive; Activity [4]: inactive; Activity [5]: inactive |
| Cc1cccc(C#Cc2cc3ccccc3s2)n1 | – | 306 | – |
| Cc1cccc(C#CCC(C)c2ccccc2)n1 (configuration not stated) | – | 59 | – |
| Cc1cccc(C#CCN(C)c2ccccc2)n1 | – | 6730 | – |
| Cc1cccc(C#CC(=O)Nc2ccccc2)n1 | – | > 10000 | – |
| Cc1cccc(C#CCNc2ccccc2)n1 | – | 223 | – |
| Cc1cccc(C#CCCCc2ccccc2)n1 | – | 258 | – |
| Cc1cccc(C#CC[S+]([O-])c2ccccc2)n1 (configuration not stated) | – | > 10000 | – |

Second part, led by results:

| Activity [1] | IC50 [2] [nM] | Compound | other results |
| --- | --- | --- | --- |
| inactive | 709 | Cc1cccc(C#CC(C)Nc2cccc(Cl)c2)n1 (configuration not stated) | – |
| inactive | 281 | Cc1cccc(C#CC(C)Oc2cccc(Cl)c2)n1 (configuration not stated) | – |
| inactive | 174 | Cc1cccc(C#CCNc2cccc(Cl)c2)n1 | – |
| – | > 10000 | Cc1cccc(C#CCNC(=O)Nc2cccc(Cl)c2)n1 | – |
| – | 862 | CCC(C#Cc1cccc(C)n1)Sc1cccc(Cl)c1 (configuration not stated) | – |
| inactive | 5 | Cc1cccc(C#CCCc2cccc(Cl)c2)n1 | Activity [3]: inactive; clearance [6]: 66 mL/min/kg; microsomal CLint [7]: 197 µL/min/mg; half-life [8]: 2 h; Activity [4]: inactive; Activity [5]: inactive; Vd [9]: 3.2 L/kg; Activity (Canis familiaris): 31% |
| – | 461 | Cc1cccc(C#CC(Sc2cccc(Cl)c2)C(C)C)n1 (configuration not stated) | – |
| inactive | 43 | Cc1cccc(C#CCSc2cccc(Cl)c2)n1 | – |
| – | 2610 | Cc1cccc(C#CCNC(=O)c2cccc(Cl)c2)n1 | – |
| – | 589 | Cc1cccc(C#CCSc2ccccc2)n1 | – |
| inactive | – | Cc1cccc(C#CCOc2cccc(Cl)c2)n1 | – |
| inactive | 118 | Cc1cccc(C#CC(C)Sc2cccc(Cl)c2)n1 (configuration not stated) | – |

— ChEMBL document CHEMBL1149355, “Structure-activity relationships for the linker in a series of pyridinyl-alkynes that are antagonists of the metabotropic glutamate receptor 5 (mGluR5)” (Bioorg Med Chem Lett, 2006)
